Data: patent publication US20180015100A1, “COMBINATION PRODUCTS FOR THE TREATMENT OF BACTERIAL INFECTIONS AND METHODS OF PRODUCING OR DOSING OF SAME” (priority 2016, published 2018)
In brackets after ≈: the same amount, converted by molar mass. Like-named read-outs stand apart in the source and are kept apart here.

Legend:
[1] = system: 385 Escherichia coli and 126 Klebsiella pneumoniae isolates; assay: MIC, MIC50 and MIC90 by reference broth microdilution against 511 UTI/bloodstream isolates (USA and Europe 2014-2015); format: cell-based; settings: 511 isolates; for MIC90: read-out: MIC90
[2] = system: ESBL Klebsiella pneumoniae isolates; assay: MIC against isolates analyzed in time-kill experiments; format: cell-based
[3] = system: ESBL Escherichia coli isolates; assay: Killing kinetics (time-kill); format: cell-based; settings: 8X MIC
[4] = system: ESBL Klebsiella pneumoniae isolates; assay: Killing kinetics (time-kill); format: cell-based; settings: 8X MIC
[5] = system: ESBL Escherichia coli isolates; assay: MIC against isolates analyzed in time-kill experiments; format: cell-based
[6] = system: Escherichia coli isolates with an ESBL-phenotype; assay: In vitro MIC90 of a panel of approved antibiotics, US surveillance program; format: cell-based
[7] = system: E. coli clinical isolate expressing the ESBL CTX-M-15; format: in vivo, mouse; settings: 4 mg/kg, q4 hr
[8] = system: Klebsiella oxytoca isolates; assay: MIC of cephalosporins alone or with clavulanate/tazobactam; format: cell-based; settings: clavulanate 2:1, tazobactam 4 μg/mL
[9] = system: Citrobacter freundii isolates; assay: as above; format: cell-based; settings: clavulanate 2:1, tazobactam 4 μg/mL
[10] = system: Escherichia coli isolates; assay: as above; format: cell-based; settings: clavulanate 2:1, tazobactam 4 μg/mL
[11] = system: Enterobacter aerogenes isolates; assay: as above; format: cell-based; settings: Klebsiella aerogenes, clavulanate 2:1, tazobactam 4 μg/mL
[12] = system: Enterobacter cloacae isolates; assay: as above; format: cell-based; settings: clavulanate 2:1, tazobactam 4 μg/mL
[13] = system: Klebsiella pneumoniae isolates; assay: as above; format: cell-based; settings: clavulanate 2:1, tazobactam 4 μg/mL
clinical = settings: human, in vivo
Protocol: The twice daily divided dose of study drug was administered approximately 12 hours apart. All subjects randomized to placebo received placebo oral capsules that were identical to study drug capsules and given according to the same dosing schedule and same quantity of capsules as subjects randomized to receive ceftibuten and clavulanate concurrently. All SDs, as well as the first daily dose of the MD period on […] were given while the subject was fasted. […] In addition, blood samples for assessment of trough (pre-dose) concentrations were collected on day 7, day 8, day 9, and alternate days thereafter through study day 17. […] Peak concentration (Cmax), time at which Cmax was observed (Tmax), area under the concentration-time curve to infinity (AUCinf), percent coefficient of variation (% CV), elimination half-life (T1/2), apparent total clearance of the drug from plasma after oral administration (CL/F), and apparent volume of distribution during terminal phase after non-intravenous administration (Vz/F) were determined. […] Similar to above, six subjects were randomized to receive active drug and two were randomized to receive placebo. […] Safety, tolerability and PK were assessed as described above.

[14] = Escherichia coli, E. coli (n = 124), ESBL-phenotype, read-out: MIC90
[15] = E. coli (n = 124), ESBL-phenotype

CC1(C)S[C@@H]2[C@H](/N=C/N3CCCCCC3)C(=O)N2[C@H]1C(=O)O [Mecillinam]
MIC50 [1]: 2 µg/mL (≈ 6.15 µM)
MIC90 [1]: > 32 µg/mL

C[C@@H](O)[C@H]1C(=O)N2C(C(=O)O)=C(S[C@@H]3CN[C@H](C(=O)N(C)C)C3)[C@H](C)[C@H]12 [Meropenem, meropenem]
MIC ([2]; AKP1162 (SHV-12, CTX-M-15)): 0.06 µg/mL (≈ 0.156 µM)
MIC ([2]; AKPN1159 (SHV-12)): 0.03 µg/mL (≈ 0.0782 µM)
Change in Log10 CFU/mL From Inoculum (0 hr) ([3]; AECO1156, 2 h): −3.41 Log10 CFU/mL
Change in Log10 CFU/mL From Inoculum (0 hr) ([3]; AECO1156, 4 h): −4.08 Log10 CFU/mL
Change in Log10 CFU/mL From Inoculum (0 hr) ([3]; AECO1156, 6 h): −5.69 Log10 CFU/mL
Change in Log10 CFU/mL From Inoculum (0 hr) ([3]; AECO1156, 24 h): −5.69 Log10 CFU/mL
Change in Log10 CFU/mL From Inoculum (0 hr) ([3]; AECO1157, 2 h): −3.49 Log10 CFU/mL
Change in Log10 CFU/mL From Inoculum (0 hr) ([3]; AECO1157, 4 h): −4.98 Log10 CFU/mL
Change in Log10 CFU/mL From Inoculum (0 hr) ([3]; AECO1157, 6 h): −4.38 Log10 CFU/mL
Change in Log10 CFU/mL From Inoculum (0 hr) ([3]; AECO1157, 24 h): −5.98 Log10 CFU/mL
Change in Log10 CFU/mL From Inoculum (0 hr) ([3]; AECO1162, 2 h): −2.91 Log10 CFU/mL
Change in Log10 CFU/mL From Inoculum (0 hr) ([3]; AECO1162, 4 h): −3.42 Log10 CFU/mL
Change in Log10 CFU/mL From Inoculum (0 hr) ([3]; AECO1162, 6 h): −4.39 Log10 CFU/mL
Change in Log10 CFU/mL From Inoculum (0 hr) ([3]; AECO1162, 24 h): −6.08 Log10 CFU/mL
Change in Log10 CFU/mL From Inoculum (0 hr) ([3]; AECO1166, 2 h): −4.17 Log10 CFU/mL
Change in Log10 CFU/mL From Inoculum (0 hr) ([3]; AECO1166, 4 h): −6.08 Log10 CFU/mL
Change in Log10 CFU/mL From Inoculum (0 hr) ([3]; AECO1166, 6 h): −6.08 Log10 CFU/mL
Change in Log10 CFU/mL From Inoculum (0 hr) ([3]; AECO1166, 24 h): −6.08 Log10 CFU/mL
MIC50 [1]: 0.03 µg/mL (≈ 0.0782 µM)
EUCAST % I ([1]; EUCAST 2016 criteria): 3.3%
MIC90 [1]: 0.12 µg/mL (≈ 0.313 µM)
Change in Log10 CFU/mL From Inoculum (0 hr) ([4]; AKPN1159, 2 h): −2.64 Log10 CFU/mL
Change in Log10 CFU/mL From Inoculum (0 hr) ([4]; AKPN1159, 4 h): −4.16 Log10 CFU/mL
Change in Log10 CFU/mL From Inoculum (0 hr) ([4]; AKPN1159, 6 h): −4.73 Log10 CFU/mL
Change in Log10 CFU/mL From Inoculum (0 hr) ([4]; AKPN1159, 24 h): −6.33 Log10 CFU/mL
Change in Log10 CFU/mL From Inoculum (0 hr) ([4]; AKPN1162, 2 h): −3.01 Log10 CFU/mL
Change in Log10 CFU/mL From Inoculum (0 hr) ([4]; AKPN1162, 4 h): −3.58 Log10 CFU/mL
Change in Log10 CFU/mL From Inoculum (0 hr) ([4]; AKPN1162, 6 h): −3.66 Log10 CFU/mL
Change in Log10 CFU/mL From Inoculum (0 hr) ([4]; AKPN1162, 24 h): −6.48 Log10 CFU/mL
MIC ([5]; AECO1156 (CTXM-15, TEM-OSBL)): 0.03 µg/mL (≈ 0.0782 µM)
MIC ([5]; AECO1157 (CTXM-15, TEM-OSBL)): 0.03 µg/mL (≈ 0.0782 µM)
MIC ([5]; AECO1162 (CTX-M-14)): 0.03 µg/mL (≈ 0.0782 µM)
MIC ([5]; AECO1166 (SHV-12)): 0.016 µg/mL (≈ 0.0417 µM)
MIC90 [6, 14]: 0.03 µg/mL (≈ 0.0782 µM)
bacterial CFU, bladder [7]: 3.75 log10 CFU
bacterial CFU, kidneys [7]: 3.11 log10 CFU
bacterial CFU, urine [7]: 3.25 log10 CFU

O=C1CN(/N=C/c2ccc([N+](=O)[O-])o2)C(=O)N1 [Nitrofurantoin]
MIC50 [1]: 16 µg/mL (≈ 67.2 µM)
MIC90 [1]: 256 µg/mL (≈ 1070 µM)

C[C@]1(Cn2ccnn2)[C@H](C(=O)O)N2C(=O)C[C@H]2S1(=O)=O [Tazobactam, tazobactam]
MIC ([8]; AKOX1005 (SHV-2, TEM-1, DHA-1)): > 64 µg/mL
MIC ([8]; AKOX1009 (CTX-M-15)): > 64 µg/mL
MIC ([9]; ACFR1034 (CTX-M-15, TEM-OSBL)): > 64 µg/mL
MIC ([9]; ACFR1035 (CTX-M-3, TEM-OSBL)): > 64 µg/mL
MIC ([10]; AECO001 (no ESBL)): > 64 µg/mL
MIC ([10]; AECO1078 (CTX-M-15)): > 64 µg/mL
MIC ([10]; AECO1147 (CTX-M-15)): > 64 µg/mL
MIC ([10]; AECO1157 (CTX-M-15, TEM-OSBL)): > 64 µg/mL
MIC ([10]; AECO1159 (CTX-M-15)): > 64 µg/mL
MIC ([10]; AECO1169 (CTX-M-1, TEM-OSBL)): > 64 µg/mL
MIC ([10]; AECO1172 (CTX-M-14)): > 64 µg/mL
MIC ([11]; AEAE1027 (CTX-M-14)): > 64 µg/mL
MIC ([11]; AEAE1029 (CTX-M-15)): > 64 µg/mL
MIC ([12]; AECL1065 (CTX-M-15)): > 64 µg/mL
MIC ([12]; AECL1067 (CTX-M-3)): > 64 µg/mL
MIC ([13]; AKPN1159 (SHV-12)): > 64 µg/mL
MIC ([13]; AKPN1161 (SHV-7)): > 64 µg/mL
MIC ([13]; AKPN1162 (CTX-M-15, SHV-12)): > 64 µg/mL
MIC ([13]; AKPN1166 (CTX-M-14, SHV-12)): > 64 µg/mL
MIC ([13]; AKPN1167 (SHV-2)): > 64 µg/mL

CN(C)c1cc(NC(=O)CNC(C)(C)C)c(O)c2c1C[C@H]1C[C@H]3[C@H](N(C)C)C(O)=C(C(N)=O)C(=O)[C@@]3(O)C(O)=C1C2=O [Tigecycline]
MIC90 ([6]; Escherichia coli): 0.25 µg/mL (≈ 0.427 µM)

NC[C@H]1O[C@H](O[C@H]2[C@H](O)[C@@H](O[C@H]3O[C@H](CO)[C@@H](O)[C@H](N)[C@H]3O)[C@H](N)C[C@@H]2N)[C@H](N)C[C@@H]1O [Tobramycin]
MIC90 [6, 14]: > 8 µg/mL

NCC(=O)CCO [amino ketone metabolite of clavulanate]
% of parent exposure (clinical): approximately 8.5%

Colistin
MIC90 [6, 15]: 0.25 µg/mL

Gentamicin
MIC90 [6, 15]: >8 µg/mL
